Data published in PubChem BioAssay (NCI).
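The compound was tested at five concentrations on cells cultured in 96-well plates, with a 48-hour exposure period. Here, GI50 denotes the concentration required for 50% inhibition of growth. Definition used: TGI = concentration required for complete inhibition of growth.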

Assays:
Experiment in all cases: NCI anticancer screen, dose series, 48 h
[1] = test system: SF-539 CNS
[2] = test system: UACC-62 melanoma
[3] = test system: SK-OV-3 ovarian
[4] = test system: SK-MEL-5 melanoma
[5] = test system: SR leukemia
[6] = test system: TK-10 renal
[7] = test system: HS 578T breast
[8] = test system: NCI-H522 lung
[9] = test system: SK-MEL-28 melanoma
[10] = test system: RXF 393 renal
[11] = test system: UACC-257 melanoma
[12] = test system: COLO 205 colon
[13] = test system: 786-0 renal

Structure (SMILES)	TGI [1]	TGI [2]	TGI [3]	TGI [4]	TGI [5]	TGI [6]	TGI [7]	TGI [8]	TGI [9]	TGI [10]	TGI [11]	TGI [12]	TGI [13]	GI50 [1]	GI50 [3]	GI50 [4]	GI50 [5]	GI50 [6]	GI50 [7]	GI50 [11]
CCOc1ccc(/C=C2\N=C(c3ccccc3)OC2=O)cc1	> 100 µM	> 100 µM	> 100 µM	> 100 µM	> 100 µM	> 100 µM	> 100 µM	> 100 µM	> 100 µM	> 100 µM	> 100 µM	–	–	–	–	–	–	–	–	–
C/C(=N/NC(=O)c1ccncc1)C(F)(F)F	–	> 100 µM	> 100 µM	> 100 µM	> 100 µM	> 100 µM	> 100 µM	> 100 µM	> 100 µM	> 100 µM	–	> 100 µM	–	–	–	–	–	–	–	–
NCCCCCC(CCN)SCC1OC(n2cnc3c(N)ncnc32)C(O)C1O (configuration not stated)	> 1240 µM	> 1500 µM	> 1500 µM	> 1500 µM	–	–	–	> 1500 µM	> 1500 µM	> 1500 µM	> 1500 µM	> 1500 µM	–	–	–	–	–	–	–	–
COc1cccc2c1C(=O)c1c(O)c3c(c(O)c1C2=O)C[C@@](O)(C(=O)CO)CC3OC1CC(N(C)CCOCC(OC(C)=O)OC(C)=O)C(O)C(C)O1 (some centres not stated)	> 0.01 µM	> 0.01 µM	> 0.01 µM	> 0.01 µM	–	> 0.01 µM	–	> 0.01 µM	> 0.01 µM	> 0.01 µM	> 0.01 µM	–	> 0.01 µM	–	–	–	–	–	–	–
COC(=O)/C=C1\SC2(OC1=Nc1ccccc1)C1CC3CC(C1)CC2C3 (configuration not stated)	> 100 µM	> 100 µM	> 100 µM	> 100 µM	> 100 µM	> 100 µM	> 100 µM	> 100 µM	> 100 µM	> 100 µM	> 100 µM	–	–	–	–	–	–	–	–	–
C[N+]1(C)C2CC(OC(=O)C(CO)c3ccccc3)CC1C1OC12 (configuration not stated)	> 100 µM	> 100 µM	> 100 µM	> 100 µM	> 100 µM	> 100 µM	> 100 µM	> 100 µM	> 100 µM	> 100 µM	> 100 µM	> 100 µM	> 100 µM	–	–	–	–	–	–	–
O=C1c2cc(Br)ccc2-c2ccc3c4ccc5c6c(ccc(c7ccc1c2c73)c64)C(=O)c1cc(Br)ccc1-5	> 100 µM	> 100 µM	> 100 µM	> 100 µM	> 100 µM	> 100 µM	> 100 µM	> 100 µM	> 100 µM	> 100 µM	> 100 µM	> 100 µM	> 100 µM	–	–	–	–	–	–	–
CC(=O)CCC#Cc1ccccc1C(=O)C(C)=[N+]=[N-]	> 100 µM	38.7 µM	> 100 µM	33.1 µM	–	> 100 µM	–	–	> 100 µM	97.5 µM	> 100 µM	39.6 µM	–	–	–	–	–	–	–	–
O=C1C=CC2(C=C1)O[C@H](COCc1ccccc1)[C@@H](COCc1ccccc1)O2	3.62 µM	3.99 µM	29 µM	3.22 µM	0.849 µM	4.17 µM	4.87 µM	–	3.57 µM	1.31 µM	3.56 µM	3.35 µM	2.22 µM	–	–	–	–	–	–	–
COc1ccc(-c2cc(N3CCN(c4ccc(Cl)cc4)CC3)c(C#N)c(=O)o2)cc1	14.6 µM	–	–	31.3 µM	> 100 µM	37.7 µM	–	–	23.3 µM	17.3 µM	73.1 µM	> 100 µM	–	–	–	–	–	–	–	–
O=C(O)c1ccccc1CN1CCCC(C(=O)O)C1 (configuration not stated)	> 100 µM	> 100 µM	> 100 µM	> 100 µM	> 100 µM	> 100 µM	> 100 µM	> 100 µM	> 100 µM	> 100 µM	> 100 µM	> 100 µM	> 100 µM	–	–	–	–	–	–	–
CC[C@@H]1/C=C/C=C/C[C@H](C)[C@@H](O)[C@@H](C)C(=O)[C@H](C)[C@@H](O)[C@H](C)C(=O)[C@H](C)[C@@H](O)[C@H](C)/C=C/C(=O)O[C@H]2[C@@H](C)[C@@H](CC1)O[C@@]1(CC[C@@H](C)[C@@H](CC(C)O)O1)[C@@H]2C (some centres not stated)	24.6 µM	14.5 µM	> 21.3 µM	3.38 µM	10.2 µM	> 23.6 µM	> 23.5 µM	11.4 µM	> 25 µM	9.44 µM	1.82 µM	4.62 µM	> 25 µM	–	–	–	–	–	–	–
CN1C2CCC1/C(=C/c1cccc3c1OCO3)C(=O)/C2=C\c1cccc2c1OCO2	–	91.4 µM	> 100 µM	> 100 µM	> 100 µM	56.2 µM	–	–	> 100 µM	68 µM	> 100 µM	> 100 µM	–	–	–	–	–	–	–	–
Cc1cccc2cc(/C=C/C(=O)/C=C/c3ccc(Cl)cc3)c(=O)[nH]c12	> 100 µM	–	> 100 µM	> 100 µM	11.6 µM	> 100 µM	> 100 µM	–	–	–	> 100 µM	–	–	> 100 µM	> 100 µM	> 100 µM	2.72 µM	> 100 µM	> 100 µM	> 100 µM
NC(Cc1ccc(CP(=O)(O)O)cc1)C(=O)O (configuration not stated)	> 100 µM	> 100 µM	> 100 µM	> 100 µM	> 100 µM	> 100 µM	> 100 µM	> 100 µM	> 100 µM	> 100 µM	> 100 µM	> 100 µM	–	–	–	–	–	–	–	–
Fc1ccc(Nc2nc(Cl)c3[nH]cnc3n2)cc1Cl	> 100 µM	> 100 µM	> 100 µM	> 100 µM	> 100 µM	> 100 µM	> 100 µM	> 100 µM	> 100 µM	–	> 100 µM	> 100 µM	> 100 µM	–	–	–	–	–	–	–
O=C(O)C(Cc1cc(I)c(O)c(I)c1)C1CCCCC1 (configuration not stated)	–	> 100 µM	–	53.5 µM	> 100 µM	88.7 µM	> 100 µM	> 100 µM	> 100 µM	> 100 µM	> 100 µM	–	> 100 µM	–	–	–	–	–	–	–
C=C=C[P+](c1ccccc1)(c1ccccc1)c1ccccc1	40.2 µM	–	> 100 µM	23.3 µM	60.8 µM	78.2 µM	–	6 µM	77.7 µM	–	39.5 µM	10.3 µM	17.7 µM	–	–	–	–	–	–	–
CCOC(=O)CC1=N/C(=N/C(=N)N[N+](=O)[O-])SC1	> 100 µM	> 100 µM	> 100 µM	> 100 µM	–	> 100 µM	–	> 100 µM	> 100 µM	> 100 µM	> 100 µM	> 100 µM	> 100 µM	–	–	–	–	–	–	–
NC(N)=N/N=C\c1c(-c2cccc([N+](=O)[O-])c2)nc2sccn12	54.9 µM	79 µM	–	36.1 µM	–	4.53 µM	38.1 µM	14.2 µM	4.37 µM	5.8 µM	48.8 µM	14.5 µM	> 100 µM	–	–	–	–	–	–	–
Nc1ccccc1N	> 100 µM	> 100 µM	> 100 µM	> 100 µM	> 100 µM	> 100 µM	–	47.5 µM	> 100 µM	> 100 µM	–	> 100 µM	> 100 µM	–	–	–	–	–	–	–
